# Assay results: ChEMBL document CHEMBL1201862, “PubChem BioAssay data set” (2004)
# Activity calls are given as the source filed them.
# Experiments:
# Cytochrome P450 2D6 = Cytochrome P450 2D6 (Homo sapiens, UniProt P10635);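 note: CYP2D6 member of a cytochrome P450 panel assay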
# Cytochrome P450 2C9 = Cytochrome P450 2C9 (Homo sapiens, UniProt P11712)
# Streptokinase A = target: T1, Streptokinase A (Streptococcus pyogenes serotype M1, UniProt P10520); assay: viability-normalized secreted streptokinase activity reduction – plasminogen activation absorbance, OD405, dose response (AID 1914); format: functional, Streptococcus pyogenes M1 GAS;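 note: secreted streptokinase activity via plasminogen activation per viability signal from cell pellet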
# T1 sequence (P10520 whole entry): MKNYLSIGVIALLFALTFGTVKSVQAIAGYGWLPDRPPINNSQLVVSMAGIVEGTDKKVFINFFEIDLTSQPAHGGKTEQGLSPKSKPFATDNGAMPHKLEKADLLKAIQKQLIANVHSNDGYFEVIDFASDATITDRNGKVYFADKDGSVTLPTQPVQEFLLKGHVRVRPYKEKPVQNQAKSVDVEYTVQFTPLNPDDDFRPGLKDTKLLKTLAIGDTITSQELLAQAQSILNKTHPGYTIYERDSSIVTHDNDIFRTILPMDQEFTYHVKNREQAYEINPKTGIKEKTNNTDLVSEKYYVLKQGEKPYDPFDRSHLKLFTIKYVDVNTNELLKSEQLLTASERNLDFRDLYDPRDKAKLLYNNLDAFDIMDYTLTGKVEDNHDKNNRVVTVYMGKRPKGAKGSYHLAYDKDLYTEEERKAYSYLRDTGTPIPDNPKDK
# Streptococcus = assay: GAS UMAA2166 growth inhibition – luminescence, BacTiterGlo, counter-screen for streptokinase expression inhibitor project, dose response (AID 1915); format: functional, organism-based;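 note: potency for reduction of bacterial viability or growth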
# [1] = tested on: Streptococcus sp. 'group A'; assay: Streptococcus pyogenes SK(-)GAS viability under kanamycin – luminescence, BacTiterGlo, confirmation, counter-screen for streptokinase expression inhibitor project, dose response (AID 1900); format: functional, organism-based
# [2] = NIH3T3 cell viability loss – ATP luminescence, mouse fibroblasts, counter-screen, dose response (AID 2010); format: functional, cell-based;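 note: cells exposed to compound for about 90 hours before reading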
# [3] = Trypanosoma cruzi growth suppression in host cells – NIH3T3 host cells, beta-gal luminescence, confirmation (AID 2044); format: functional, cell-based;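 note: intracellular parasites grown in NIH/3T3 mouse fibroblasts as host cells; luminescent beta-galactosidase reporter signal from transgenic T. cruzi replicating inside host cells; inhibitors lower the luminescence signal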
# Cytochrome P450 2C19 = Cytochrome P450 2C19 (Homo sapiens, UniProt P33261); assay: Cytochrome panel assay with activity outcomes. Panel member name: p450-cyp2c19 Compounds with AC50 equal or less than 10 uM are considered active; format: functional
# Sequence of Cytochrome P450 2C19 (P33261 whole entry): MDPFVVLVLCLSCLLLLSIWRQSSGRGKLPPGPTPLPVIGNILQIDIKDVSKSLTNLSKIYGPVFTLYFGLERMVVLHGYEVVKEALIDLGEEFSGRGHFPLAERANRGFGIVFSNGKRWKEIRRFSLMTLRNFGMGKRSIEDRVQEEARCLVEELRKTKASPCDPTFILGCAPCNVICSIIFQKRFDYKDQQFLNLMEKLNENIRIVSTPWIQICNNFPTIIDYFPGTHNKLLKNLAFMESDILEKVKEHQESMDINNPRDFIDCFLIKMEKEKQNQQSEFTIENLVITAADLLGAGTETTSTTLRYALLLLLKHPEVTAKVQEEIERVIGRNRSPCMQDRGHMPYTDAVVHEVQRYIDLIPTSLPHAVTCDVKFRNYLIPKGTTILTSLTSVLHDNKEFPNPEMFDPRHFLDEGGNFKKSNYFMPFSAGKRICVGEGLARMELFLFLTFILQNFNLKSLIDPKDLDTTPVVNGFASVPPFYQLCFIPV
# Sequence of Cytochrome P450 2C9 (P11712 whole entry): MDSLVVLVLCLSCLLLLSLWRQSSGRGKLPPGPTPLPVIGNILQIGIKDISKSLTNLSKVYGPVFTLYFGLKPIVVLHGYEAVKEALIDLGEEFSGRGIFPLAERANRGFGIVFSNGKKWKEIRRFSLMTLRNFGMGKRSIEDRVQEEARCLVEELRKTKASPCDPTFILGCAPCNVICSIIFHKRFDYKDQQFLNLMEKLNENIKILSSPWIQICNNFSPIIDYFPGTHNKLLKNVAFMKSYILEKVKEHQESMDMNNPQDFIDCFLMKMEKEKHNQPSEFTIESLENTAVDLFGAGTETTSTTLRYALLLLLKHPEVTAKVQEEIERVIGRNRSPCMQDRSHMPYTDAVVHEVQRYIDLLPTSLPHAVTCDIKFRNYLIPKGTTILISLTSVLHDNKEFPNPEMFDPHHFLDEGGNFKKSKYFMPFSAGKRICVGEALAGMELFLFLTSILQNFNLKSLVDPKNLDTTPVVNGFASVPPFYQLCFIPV
# Sequence of Cytochrome P450 2D6 (P10635 whole entry): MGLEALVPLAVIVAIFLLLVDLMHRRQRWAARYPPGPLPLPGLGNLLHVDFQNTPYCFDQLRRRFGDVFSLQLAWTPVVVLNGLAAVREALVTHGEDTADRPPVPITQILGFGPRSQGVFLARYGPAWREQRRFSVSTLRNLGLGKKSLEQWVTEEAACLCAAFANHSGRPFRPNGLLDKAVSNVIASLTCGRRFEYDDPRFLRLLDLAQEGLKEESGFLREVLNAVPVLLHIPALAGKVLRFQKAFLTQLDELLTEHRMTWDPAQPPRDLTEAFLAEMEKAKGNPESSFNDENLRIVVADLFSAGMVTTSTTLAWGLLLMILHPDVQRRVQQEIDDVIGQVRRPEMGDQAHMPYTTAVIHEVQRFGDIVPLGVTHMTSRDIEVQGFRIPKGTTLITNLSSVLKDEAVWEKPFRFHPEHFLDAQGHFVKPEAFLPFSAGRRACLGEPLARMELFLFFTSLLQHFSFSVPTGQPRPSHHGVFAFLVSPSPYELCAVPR
smiles,measurement,setting,value
NC(=O)C1(N2CCCCC2)CCN(C(=O)c2ccc(-n3cnnn3)cc2)CC1,AC50,Cytochrome P450 2D6,1.58 µM (inconclusive)
COc1cccc(Cn2c(=O)c(-c3cccs3)nc3cnc(N4CCOCC4)nc32)c1,AC50,Cytochrome P450 2C9,25.1 µM (inconclusive)
O=C(CN(c1ccc(Cl)c(C(F)(F)F)c1)S(=O)(=O)c1ccccc1)N/N=C/c1cccc2c1OCCO2,EC50,Streptokinase A,32.9 µM (active)
same,EC50,Streptococcus,95.3 µM (active)
same,EC50,[1],8.38 µM (active)
CCCCSc1ccc2nc(-c3ccc(C#N)cc3)cn2c1,EC50,Streptokinase A,> 150 µM (not active)
same,EC50,Streptococcus,14.4 µM (active)
same,EC50,[1],13.1 µM (active)
CCN(CC)S(=O)(=O)c1ccc(N2CCOCC2)c(NC(=O)C2CSC3(C)CCC(=O)N23)c1 (centres undefined),EC50,Streptokinase A,> 150 µM (not active)
same,EC50,Streptococcus,> 150 µM (not active)
same,EC50,[1],> 150 µM (not active)
COc1ccc(COc2cc(-c3cccc(OC)c3)nc3ccc(NC(C)=O)cc23)cc1,EC50,[2],> 60 µM (not active)
same,EC50,[3],0.728 µM (active)
COc1ccc(C(=O)C2CCCN(Cc3c(C)[nH]c4ccccc34)C2)c(OC)c1 (centres undefined),EC50,[2],> 60 µM (not active)
same,EC50,[3],0.299 µM (active)
COc1cc(-c2cc(C(=O)Nc3ccc(S(=O)(=O)NCc4ccco4)cc3)c3ccccc3n2)cc(OC)c1OC,EC50,[2],> 60 µM (not active)
same,EC50,[3],1.62 µM (active)
CN(C)C(=O)CN(c1ccc2c(c1)OCO2)S(C)(=O)=O,AC50,Cytochrome P450 2C9,0.178 µM (inconclusive)
Cc1cc(Nc2ccccc2)nn1C(=O)c1ccc(Br)cc1,EC50,Streptokinase A,> 150 µM (not active)
same,EC50,Streptococcus,> 150 µM (not active)
same,EC50,[1],20.6 µM (active)
Cc1cc(NCCO)c2ccccc2n1,AC50,Cytochrome P450 2C19; read-out: AC50,39.8 µM (inconclusive)
CC(C)C(NC(=O)OCc1ccccc1)C(=O)O (centres undefined),AC50,Cytochrome P450 2C9,11.2 µM (inconclusive)
Cc1ccc2c(c1)C(=O)[C@@]1(O)CCN(c3ccccc3)C1=N2,AC50,Cytochrome P450 2D6,39.8 µM (inconclusive)
O=C1c2ccccc2CCC12N=NCC2c1ccc(Br)cc1 (centres undefined),EC50,Streptokinase A,23.7 µM (active)
same,EC50,Streptococcus,> 150 µM (not active)
same,EC50,[1],22.6 µM (active)
COc1ccc(S(=O)(=O)NCc2ccc(C(=O)N3CCN(c4ccccn4)CC3)cc2)cc1,AC50,Cytochrome P450 2C19; read-out: AC50,7.94 µM (inconclusive)
COc1ccc(S(=O)(=O)Nc2ccc(F)cc2)c(C)c1C,AC50,Cytochrome P450 2D6,0.447 µM (inconclusive)
CN(C)c1nc(N)ncc1-c1ccc(Oc2ccccc2)cc1,EC50,[2],> 60 µM (not active)
same,EC50,[3],0.231 µM (active)
O/N=C/c1ccccc1OCc1ccc(Cl)cc1,AC50,Cytochrome P450 2C19; read-out: AC50,2.82 µM (inconclusive)
same,AC50,Cytochrome P450 2D6,22.4 µM (inconclusive)
Cc1nc2cnc(N3CCNCC3)nc2n(CCc2ccccc2)c1=O,AC50,Cytochrome P450 2C9,39.8 µM (inconclusive)
CN(C)C(=O)c1ccc(-c2cncnc2NCc2cccs2)cc1,AC50,Cytochrome P450 2D6,39.8 µM (inconclusive)
CC(c1ccccc1C(O)c1ccccc1)N(C)C (centres undefined),AC50,Cytochrome P450 2C9,0.0355 µM (inconclusive)
CC(=O)N1CCc2cc(S(=O)(=O)N3CCc4ccccc43)ccc21,EC50,Streptokinase A,> 150 µM (not active)
same,EC50,Streptococcus,> 150 µM (not active)
same,EC50,[1],> 150 µM (not active)
c1ccc2c(c1)C(=NC1CCCCC1)N=C2NC1CCCCC1,EC50,[2],> 60 µM (not active)
same,EC50,[3],1.27 µM (active)
Cc1ccc(C(=O)/C=C(\O)C(=O)NC23CC4CC(CC(C4)C2)C3)cc1,EC50,Streptokinase A,> 150 µM (not active)
same,EC50,Streptococcus,> 150 µM (not active)
same,EC50,[1],4.07 µM (active)
O=S(=O)(c1cnccc1N1CCN(/N=C/c2ccccc2)CC1)N1CCCCC1,AC50,Cytochrome P450 2D6,25.1 µM (inconclusive)
COc1ccc(CCNC(=O)c2cccc(NS(=O)(=O)c3ccccc3F)c2)cc1OC,EC50,Streptokinase A,> 150 µM (not active)
same,EC50,Streptococcus,> 150 µM (not active)
same,EC50,[1],> 150 µM (not active)
C=CCc1cc(/C=C2/NC(=O)N(CC)C2=O)cc(OCC)c1OCc1ccc(C(=O)O)cc1,EC50,Streptokinase A,> 150 µM (not active)
same,EC50,Streptococcus,105 µM (active)
same,EC50,[1],12.5 µM (active)
O=C(CN1CCCCCCC1)N/N=C/c1ccc([N+](=O)[O-])o1,EC50,[2],> 60 µM (not active)
same,EC50,[3],1.34 µM (active)
Cc1ccc(S(=O)(=O)N(CC(=O)Nc2cccc(N(C)S(C)(=O)=O)c2)c2ccc(Cl)c(Cl)c2)cc1,EC50,[2],> 60 µM (not active)
same,EC50,[3],2.14 µM (active)
COc1ccc2c3ncn(CCc4c[nH]cn4)c(O)c-3nc2c1,EC50,Streptokinase A,> 150 µM (not active)
same,EC50,Streptococcus,> 150 µM (not active)
same,EC50,[1],> 150 µM (not active)
CC1=C(C#N)c2nc(N)c(C#N)c(C)c2/C1=C\c1ccc(C)cc1,EC50,Streptokinase A,12.3 µM (active)
same,EC50,Streptococcus,> 150 µM (not active)
same,EC50,[1],4.38 µM (active)
CCC(C)(C)NC(=NC#N)Nc1cccnc1,AC50,Cytochrome P450 2D6,39.8 µM (inconclusive)
COc1ccc(NC(=O)CN(C)C(=O)/C=C/c2cn(-c3ccccc3)nc2-c2ccc(C)cc2)cc1,EC50,Streptokinase A,> 150 µM (not active)
same,EC50,Streptococcus,114 µM (active)
same,EC50,[2],> 60 µM (not active)
same,EC50,[3],2.17 µM (active)
COc1cc(C(=O)OC(C)C(=O)Nc2ccc3c(c2)OCO3)ccc1OCc1c(C)noc1C (centres undefined),AC50,Cytochrome P450 2D6,28.2 µM (inconclusive)
OC[C@@H]1O[C@@H](O)[C@H](/N=C\c2ccc3c(c2)OCO3)[C@@H](O)[C@@H]1O,AC50,Cytochrome P450 2C19,inconclusive
COc1ccc2c(c1)-c1c(sn(-c3ccc(OC)c(OC)c3)c1=S)C(C)(C)N2,AC50,Cytochrome P450 2C9,5.01 µM (inconclusive)
Cc1ccc(OCCn2cnc3cc([N+](=O)[O-])ccc3c2=O)cc1,EC50,[2],> 30 µM (not active)
same,EC50,[3],0.366 µM (active)
O=C(CCN1C(=O)/C(=C/c2ccccc2)SC1=S)NCCCN1CCOCC1,EC50,[2],8.78 µM (active)
same,EC50,[3],2.62 µM (active)
O=C(Nc1ccccc1)N1CCC2(CC1)CCN(S(=O)(=O)c1ccccc1)CC2,AC50,Cytochrome P450 2D6,39.8 µM (inconclusive)
O=C(N/N=C/c1ccco1)c1ccccn1,AC50,Cytochrome P450 2C19,inconclusive
CC1(C)CC(=O)C2=C(C1)Oc1nc3ccccc3cc1C2C(C#N)C#N (centres undefined),AC50,Cytochrome P450 2D6,0.112 µM (inconclusive)
O=S(=O)(c1ccccc1)N1CCC2(CCCN(Cc3nccs3)C2)CC1,AC50,Cytochrome P450 2C19,inconclusive
C=CCn1c(=O)c(C(=O)NCc2ccccc2)c(O)c2ccccc21,EC50,Streptokinase A,42.2 µM (active)
same,EC50,Streptococcus,> 150 µM (not active)
same,EC50,[1],20.4 µM (active)
O=P(O)(CCc1ccccc1)C(O)c1ccccc1 (centres undefined),AC50,Cytochrome P450 2D6,35.5 µM (inconclusive)
CCOc1ccc(CC(C(N)=O)C(N)=O)cc1CN(C)C,AC50,Cytochrome P450 2C19; read-out: AC50,22.4 µM (inconclusive)
same,AC50,Cytochrome P450 2D6,17.8 µM (inconclusive)
Cc1nc2sccc2c(=O)n1-c1ccccc1Cl,AC50,Cytochrome P450 2D6,14.1 µM (inconclusive)
COc1ccc(-n2c(=O)c(-c3cccc(F)c3)nc3cncnc32)cc1,AC50,Cytochrome P450 2C19; read-out: AC50,31.6 µM (inconclusive)
C[C@@H](C[C@@H](O)[C@H](O)C(C)(C)O)[C@@H]1CC[C@]2(C)C3=CC[C@H]4C(C)(C)C(=O)CC[C@]4(C)[C@H]3CC[C@@]12C,EC50,Streptokinase A,> 150 µM (not active)
same,EC50,Streptococcus,5.03 µM (active)
same,EC50,[1],3.13 µM (active)
O=C(CSc1ccc(Cl)cc1)NC1=NN(c2ccccc2)C(=O)C1,EC50,Streptokinase A,9.33 µM (inconclusive)
same,EC50,Streptococcus,7.17 µM (active)
same,EC50,[1],7.47 µM (active)
COc1ccc(COC2OC[C@]3(C)[C@H]4C5=C(CN3C(=O)OC(C)(C)C)[C@H](C)C(CO)C(CO)C5CC[C@@H]24)cc1 (some centres undefined),AC50,Cytochrome P450 2C19; read-out: AC50,39.8 µM (inconclusive)
CCN(CC)S(=O)(=O)c1cccc(C(=O)/C=C2/N(C)c3ccccc3C2(C)C)c1,EC50,[2],> 60 µM (inconclusive)
same,EC50,[3],0.739 µM (active)
